US6716819B2, “Use of xylitol to reduce ionic strength and activate endogenous antimicrobials for prevention and treatment of infections” (University of Iowa Research Foundation, priority 2000, dated 2004)

Assays:
P. aeruginosa = test: Growth in carbon-starved M9 media (O.D.); format: cell-based; settings: M9 media supplemented at 100 mM
Procedure: FIGS. 5(A-G). […] A, B and C. Growth of P. aeruginosa (A), S. aureus, (B), and coagulase-negative Staphylococcus (C) were measured as O. D. M9 media alone is indicated by open triangle. Xylitol (closed circle), or succinate, mannitol, or sucrose (open circles), were added to M9 media at 100 mM as indicated. D. Nasal swabs were collected and cultured for 3 days in Lauria-Bertani media (open circles), in minimal M9 media (open squares), or in M9 media supplemented with 100 mM xylitol (closed circles). E, F and G. P. aeruginosa (E), S. aureus (F), and coagulase-negative Staphylococcus (G) were cultured in Lauria-Bertani media alone (open triangles), Lauria-Bertani media with 100 mM xylitol (closed circles), and Lauria-Bertani media containing tobramycin or levofloxacin (open circles).
To test the effect of xylitol on growth of different airway pathogens in a carbon-starved media, P. aeruginosa, S. aureus, and coagulase-negative Staphylococcus were grown overnight in Lauria-Bertani medium. The bacteria were then centrifuged and resuspended in M9 media containing either 100 mM succinate, mannitol, or sucrose, respectively, and grown overnight at 37° C. The bacteria were centrifuged and resuspended in M9 media alone. M9 media containing 100 mM xylitol, or 100 mM of the indicated metabolizable sugar, as positive control. The optical density (O.D.) was measured after 0, 1, 2, and 4 hours at 600 nm on a Beckman DU640 Spectrophotometer (Schaumburg, Ill.). To test the antibiotic effect of xylitol, P. aeruginosa, S. aureus, and coagulase-negative Staphylococcus were grown overnight in Lauria-Bertani medium. The bacteria were then centrifuged and resuspended in Lauria-Bertani media with and without 100 mM xylitol. As a positive control, antibiotics with specific activity to each of the bacteria were added to the media (40 μg/ml tobramycin or 40 μg/ml levofloxacin).

non-CF epithelia = test: Transepithelial electrical properties in Ussing chambers; format: cell-based, human; settings: 10 μM apical, n=9
From the text: (§1) For measurement of transepithelial electrical properties, a few epithelia from each culture preparation were mounted in Ussing chambers and studied as previously described (Zabner, J., J. J. Smith, P. H. Karp, J. H. Widdicombe, and M. J. Welsh. 1998. Loss of CFTR chloride channels alters salt absorption by cystic fibrosis airway epithelia in vitro. Mol. Cell. 2:397-403). Transepithelial resistance was 588±33 Ω·cm^2 (n=9) for non-CF and 493±24 Ω·cm^2 (n=9) for CF epithelia. The decrease in current after apical addition of 10 μM amiloride was 26.9±1.0 μA·cm^−2·hr^−1 (n=9) for non-CF epithelia and 20.0±1.3 μA·cm^−2·hr^−1 (n=9) for CF epithelia.

CF epithelia = test: as above; format: cell-based, human; settings: 10 μM apical, n=9
From the text: as §1

| Compound | growth of P. aeruginosa (P. aeruginosa) | decrease in current after apical addition (non-CF epithelia) | decrease in current after apical addition (CF epithelia) |
| --- | --- | --- | --- |
| O=C(O)CCC(=O)O [succinate, reference compound] | allowed bacterial growth |  |  |
| N=C(N)NC(=O)c1nc(Cl)c(N)nc1N [amiloride] |  | 26.9±1.0 μA·cm^−2·hr^−1 | 20.0±1.3 μA·cm^−2·hr^−1 |
